The values that follow come from patent publication US9446024B2, “Formulations for the treatment of vaginal disorders” (Mission Pharmacal Company, priority 2013, dated 2016).

Holding throughout (assay): MIC determination, agar dilution
Common to all, as to type: cell-based

The subject of assay [1] is Lactobacillus crispatus. The conditions noted are these: non-reference strain.
The test system of assay [2] is Mobiluncus curtisii. The conditions noted are these: each identified strain.
Assay [3] deals with Lactobacillus gasseri. The conditions noted are these: each identified strain.
In assay [4] the test system is Lactobacillus iners. The note with it: each identified strain.
Assay [5] deals with Lactobacillus vaginalis. The conditions noted are these: Limosilactobacillus vaginalis; each identified strain.
For assay [6], the system named is Lactobacillus jensenii. The note with it: each identified strain.

The structures appear in SMILES notation. Some results are limits rather than exact numbers.

As a reminder, the MIC is the smallest concentration in the dilution series that meets the test's criterion for growth inhibition. Lower therefore signals a more susceptible organism. In the case of `CCS(=O)(=O)CCn1c([N+](=O)[O-])cnc1C` [tinidazole], the “growth inhibition at the highest concentration tested” value in assay [1] was “unaffected”. Also, the MIC in assay [2], in assay [3], in assay [4], in assay [5] and in assay [6] was > 150 µg/mL throughout.
